# Experimental data taken from article PMC6496074, “The Evolution of Azole Resistance in Candida albicans Sterol 14α-Demethylase (CYP51) through Incremental Amino Acid Substitutions” (Antimicrobial Agents and Chemotherapy, 2019).
# “And” between values parts separate entries of the source, which are not always exact repeats. Equal values may be shown once.
# Tests used:
# Experiment in all cases: CYP51 reconstitution assay
# Format in all cases: biochemical
# [1] = molecular target: T1, CaCYP51 F145L (Candida albicans, UniProt P10613, F145L)
# T1 construct: made in house; host or cells: E. coli DH5α (pCWori+)
# Procedure: (§1) Azole antifungal agents were added in 2.5 μl dimethyl sulfoxide, followed by 10 min of incubation at 37°C prior to assay initiation with 4 mM β-NADPH-Na4. The samples were then shaken for 15 min at 37°C. Sterol metabolites were recovered by extraction with ethyl acetate, followed by derivatization with 0.1 ml N,O-bis(trimethylsilyl)trifluoroacetamide (BSTFA)–trimethylchlorosilane (TMCS) (99:1) and 0.3 ml anhydrous pyridine (2 h at 80°C), prior to analysis by gas chromatography-mass spectrometry (GC-MS) ([52]). IC50 determinations were performed in duplicate.
# [2] = molecular target: T2, CaCYP51 G450E (Candida albicans, UniProt P10613, G450E)
# T2 construct: made in house; host or cells: E. coli DH5α (pCWori+)
# Procedure: as §1
# [3] = molecular target: T3, CaCYP51 V456I (Candida albicans, UniProt P10613, V456I)
# T3 construct: made in house; host or cells: E. coli DH5α (pCWori+)
# Procedure: as §1
# [4] = molecular target: T4, CaCYP51 Y118A (Candida albicans, UniProt P10613, Y118A)
# T4 construct: made in house; host or cells: E. coli DH5α (pCWori+)
# Procedure: as §1
# [5] = molecular target: T5, CaCYP51 Y132F (Candida albicans, UniProt P10613, Y132F); conditions: mean ± SD, duplicate
# T5 construct: made in house; host or cells: E. coli DH5α (pCWori+)
# Procedure: as §1
# [6] = molecular target: T6, CaCYP51 D278N (Candida albicans, UniProt P10613, D278N)
# T6 construct: made in house; host or cells: E. coli DH5α (pCWori+)
# Procedure: as §1
# [7] = molecular target: T7, CaCYP51 Wild type (Candida albicans, UniProt P10613); conditions: Wild type
# T7 construct: made in house; host or cells: E. coli DH5α (pCWori+)
# Procedure: as §1
# [8] = molecular target: T8, CaCYP51 Y257H (Candida albicans, UniProt P10613, Y257H)
# T8 construct: made in house; host or cells: E. coli DH5α (pCWori+)
# Procedure: as §1
# [9] = molecular target: T9, CaCYP51 I471T (Candida albicans, UniProt P10613, I471T)
# T9 construct: made in house; host or cells: E. coli DH5α (pCWori+)
# Procedure: as §1
# [10] = molecular target: T10, CaCYP51 G307S (Candida albicans, UniProt P10613, G307S)
# T10 construct: made in house; host or cells: E. coli DH5α (pCWori+)
# Procedure: as §1
# [11] = molecular target: T11, CaCYP51 S405F (Candida albicans, UniProt P10613, S405F)
# T11 construct: made in house; host or cells: E. coli DH5α (pCWori+)
# Procedure: as §1
# [12] = molecular target: T12, CaCYP51 G448E (Candida albicans, UniProt P10613, G448E)
# T12 construct: made in house; host or cells: E. coli DH5α (pCWori+)
# Procedure: as §1
# [13] = molecular target: T13, CaCYP51 V488I (Candida albicans, UniProt P10613, V488I)
# T13 construct: made in house; host or cells: E. coli DH5α (pCWori+)
# Procedure: as §1
# [14] = molecular target: T14, CaCYP51 G307S+G450E (Candida albicans, UniProt P10613, G307S/G450E)
# T14 construct: made in house; host or cells: E. coli DH5α (pCWori+)
# Procedure: as §1
# [15] = molecular target: T15, CaCYP51 F126V (Candida albicans, UniProt P10613, F126V)
# T15 construct: made in house; host or cells: E. coli DH5α (pCWori+)
# Procedure: as §1
# [16] = molecular target: T16, CaCYP51 P230L (Candida albicans, UniProt P10613, P230L)
# T16 construct: made in house; host or cells: E. coli DH5α (pCWori+)
# Procedure: as §1
# [17] = molecular target: T17, CaCYP51 K143R (Candida albicans, UniProt P10613, K143R)
# T17 construct: made in house; host or cells: E. coli DH5α (pCWori+)
# Procedure: as §1
# [18] = molecular target: T18, CaCYP51 R467K (Candida albicans, UniProt P10613, R467K)
# T18 construct: made in house; host or cells: E. coli DH5α (pCWori+)
# Procedure: as §1
# [19] = molecular target: T19, CaCYP51 Y132H+K143R (Candida albicans, UniProt P10613, K143R/Y132H)
# T19 construct: made in house; host or cells: E. coli DH5α (pCWori+)
# Procedure: as §1
# [20] = molecular target: T20, CaCYP51 G464S (Candida albicans, UniProt P10613, G464S)
# T20 construct: made in house; host or cells: E. coli DH5α (pCWori+)
# Procedure: as §1
# [21] = molecular target: T21, CaCYP51 Y132H (Candida albicans, UniProt P10613, Y132H)
# T21 construct: made in house; host or cells: E. coli DH5α (pCWori+)
# Procedure: as §1
# [22] = molecular target: T22, CaCYP51 Q474K (Candida albicans, UniProt P10613, Q474K)
# T22 construct: made in house; host or cells: E. coli DH5α (pCWori+)
# Procedure: as §1
# [23] = molecular target: T23, CaCYP51 S279F (Candida albicans, UniProt P10613, S279F)
# T23 construct: made in house; host or cells: E. coli DH5α (pCWori+)
# Procedure: as §1
# [24] = molecular target: T24, CaCYP51 V437I (Candida albicans, UniProt P10613, V437I)
# T24 construct: made in house; host or cells: E. coli DH5α (pCWori+)
# Procedure: as §1
# [25] = molecular target: T25, CaCYP51 F449Y (Candida albicans, UniProt P10613, F449Y)
# T25 construct: made in house; host or cells: E. coli DH5α (pCWori+)
# Procedure: as §1
# [26] = 0.25 h, 4 μM triazole, % of activity without triazole, read-out: Residual CYP51 activity (%) ± SD
# T7 sequence (P10613 whole entry, looked up, natural form): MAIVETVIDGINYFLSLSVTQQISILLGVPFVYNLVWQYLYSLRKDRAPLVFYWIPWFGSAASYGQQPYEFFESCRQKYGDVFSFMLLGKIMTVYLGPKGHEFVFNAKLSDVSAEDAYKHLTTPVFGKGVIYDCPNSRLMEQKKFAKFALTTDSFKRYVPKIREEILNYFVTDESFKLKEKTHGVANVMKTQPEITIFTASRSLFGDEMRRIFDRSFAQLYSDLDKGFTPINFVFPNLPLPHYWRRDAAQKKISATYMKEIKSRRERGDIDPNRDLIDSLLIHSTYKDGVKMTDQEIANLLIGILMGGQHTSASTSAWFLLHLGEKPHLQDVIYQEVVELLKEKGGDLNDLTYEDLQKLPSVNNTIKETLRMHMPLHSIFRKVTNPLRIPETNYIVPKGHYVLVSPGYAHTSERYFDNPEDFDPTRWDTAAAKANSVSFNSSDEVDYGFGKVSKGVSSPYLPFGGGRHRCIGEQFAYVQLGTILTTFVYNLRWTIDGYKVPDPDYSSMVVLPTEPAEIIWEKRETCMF
# T22 sequence (P10613 whole entry, looked up, stated change not applied): as the sequence (P10613 whole entry, looked up, natural form) above
# T21 sequence (P10613 whole entry, looked up, stated change not applied): as the sequence (P10613 whole entry, looked up, natural form) above
# T13 sequence (P10613 whole entry, looked up, stated change not applied): as the sequence (P10613 whole entry, looked up, natural form) above
# T6 sequence (P10613 whole entry, looked up, stated change not applied): as the sequence (P10613 whole entry, looked up, natural form) above
# T24 sequence (P10613 whole entry, looked up, stated change not applied): as the sequence (P10613 whole entry, looked up, natural form) above
# T15 sequence (P10613 whole entry, looked up, stated change not applied): as the sequence (P10613 whole entry, looked up, natural form) above
# T8 sequence (P10613 whole entry, looked up, stated change not applied): as the sequence (P10613 whole entry, looked up, natural form) above
# T1 sequence (P10613 whole entry, looked up, stated change not applied): as the sequence (P10613 whole entry, looked up, natural form) above
smiles,measurement,setting,value
"CC[C@@H]([C@H](C)O)n1ncn(-c2ccc(N3CCN(c4ccc(OC[C@@H]5CO[C@@](Cn6cncn6)(c6ccc(F)cc6F)C5)cc4)CC3)cc2)c1=O [Posaconazole, posaconazole]",remaining activity at 4 µM,[1]; [26],1.37 ± 1.21%
same,IC50,"[1]; mean ± SD, duplicate",359 ± 18 nM
same,remaining activity at 4 µM,[2]; [26],15.6 ± 0.21%
same,IC50,"[2]; mean ± SD, duplicate",908 ± 132 nM
same,remaining activity at 4 µM,[3]; [26],6.66 ± 0.05%
same,IC50,"[3]; mean ± SD, duplicate",602 ± 17 nM
same,remaining activity at 4 µM,[4]; [26],0.46 ± 0.35%
same,IC50,"[4]; mean ± SD, duplicate",206 ± 4 nM
same,IC50,[5],343 ± 20 nM
same,remaining activity at 4 µM,[6]; [26],14.8 ± 0.92%
same,IC50,"[6]; mean ± SD, duplicate",908 ± 20 nM
same,remaining activity at 4 µM,[7]; [26],0.66 ± 0.02%
same,IC50,"[7]; mean ± SD, duplicate, read-out: IC50",200 nM and 195 nM
same,remaining activity at 4 µM,[8]; [26],6.42 ± 0.59%
same,IC50,"[8]; mean ± SD, duplicate",611 ± 17 nM
same,remaining activity at 4 µM,[9]; [26],7.71 ± 0.58%
same,IC50,"[9]; mean ± SD, duplicate",522 ± 64 nM
same,remaining activity at 4 µM,[10]; [26],0.71 ± 0.04%
same,IC50,"[10]; mean ± SD, duplicate",288 ± 42 nM
same,remaining activity at 4 µM,[11]; [26],9.38 ± 0.53%
same,IC50,"[11]; mean ± SD, duplicate",637 ± 54 nM
same,remaining activity at 4 µM,[12]; [26],7.89 ± 0.29%
same,IC50,"[12]; mean ± SD, duplicate",542 ± 51 nM
same,remaining activity at 4 µM,[13]; [26],2.11 ± 0.14%
same,IC50,"[13]; mean ± SD, duplicate",481 ± 52 nM
same,remaining activity at 4 µM,[14]; [26],0.26 ± 0.11%
same,IC50,"[14]; mean ± SD, duplicate",312 ± 15 nM
same,remaining activity at 4 µM,[15]; [26],0.1 ± 0.01%
same,IC50,"[15]; mean ± SD, duplicate",304 ± 70 nM
same,remaining activity at 4 µM,[16]; [26],0.21 ± 0.05%
same,IC50,"[16]; mean ± SD, duplicate",238 ± 2 nM
same,remaining activity at 4 µM,[17]; [26],13.09 ± 0.02%
same,IC50,"[17]; mean ± SD, duplicate",789 ± 3 nM
same,remaining activity at 4 µM,[18]; [26],3.62 ± 0.09%
same,IC50,"[18]; mean ± SD, duplicate",380 ± 11 nM
same,remaining activity at 4 µM,[19]; [26],0.74 ± 0.05%
same,IC50,"[19]; mean ± SD, duplicate",196 ± 7 nM
same,remaining activity at 4 µM,[20]; [26],0.54 ± 0.09%
same,IC50,"[20]; mean ± SD, duplicate",253 ± 24 nM
same,remaining activity at 4 µM,[21]; [26],0.18 ± 0.06%
same,IC50,"[21]; mean ± SD, duplicate",195 ± 3 nM
same,remaining activity at 4 µM,[22]; [26],3.23 ± 0.18%
same,IC50,"[22]; mean ± SD, duplicate",301 ± 17 nM
same,remaining activity at 4 µM,[23]; [26],20.64 ± 0.1%
same,IC50,"[23]; mean ± SD, duplicate",912 ± 16 nM
same,remaining activity at 4 µM,[24]; [26],0.59 ± 0.2%
same,IC50,"[24]; mean ± SD, duplicate",319 ± 9 nM
same,remaining activity at 4 µM,[25]; [26],5.42 ± 0.04%
same,IC50,"[25]; mean ± SD, duplicate",366 ± 37 nM
